From patent publication US7276511B2, “Benzylamine derivative” (Zeria Pharmaceutical Co., Ltd., priority 2003, dated 2007)
Structures can show the parent of a compound that is named as a salt. Where two headings read alike, the source gives them in different places.

Tests used:
NK-1 receptor = NK-1 receptor (Homo sapiens, UniProt P25103); assay: NK-1 receptor-binding test ([3H]-Substance P, hNK1-CHO cells); set-up: expressed in transfected cells; host or cells: CHO-K1 cells (ATCC: CCL-61), G418-resistant, hNK1-CHO
Chain of NK-1 receptor (P25103 whole entry): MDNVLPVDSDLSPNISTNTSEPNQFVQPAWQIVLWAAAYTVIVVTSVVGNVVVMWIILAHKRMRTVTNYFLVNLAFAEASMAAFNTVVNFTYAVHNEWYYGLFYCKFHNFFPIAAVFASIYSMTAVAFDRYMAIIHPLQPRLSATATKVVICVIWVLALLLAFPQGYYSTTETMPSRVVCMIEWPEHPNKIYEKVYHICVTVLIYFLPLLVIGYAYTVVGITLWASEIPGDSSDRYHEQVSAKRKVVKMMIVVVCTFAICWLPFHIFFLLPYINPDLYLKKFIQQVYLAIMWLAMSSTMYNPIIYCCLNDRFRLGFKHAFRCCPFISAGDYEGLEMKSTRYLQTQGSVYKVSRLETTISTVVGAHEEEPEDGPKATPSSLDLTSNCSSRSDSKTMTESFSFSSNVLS
Method: 1. NK-1 Receptor-binding Test
1) Preparation of Human NK-1 Receptor Expression Cells
FuGene 6 transfection reagent (Boegringer Mannheim) (3 μL) was diluted in an F-12 culture broth (97 μL), and pCR3.1 plasmid to which human NK-1 receptor cDNA had been introduced (Invitrogen) (10 μL) was added thereto. The mixture was mixed and incubated for 15 minutes (transfection reagent). CHO-K1 cells (ATCC: CCL-61) were cultured for 24 hours, and the whole reagent prepared above was added to the cultured CHO-K1 cells ([…]). Subsequently, culture was performed in the presence of G418 (Stratagene), and the resistant cells were employed as cells into which human NK-1 receptor gene was introduced (hNK1-CHO).
2) Subcultivation of hNK1-CHO Cells
The hNK1-CHO cells were treated with trypsin-EDTA and subcultivated in an F-12 culture broth (containing 10% fetal bovine serum, 10 mM HEPES, 100 U/mL, penicillin, 100 μg/mL streptmycin, 400 μg/mL G418) in a 75-cm^2 flask (FALCON). Cells to be employed in the receptor-binding experiment were added to a 24-well plate (IWAKI) at 1×10^5 cells/well, and subcultured for 48 hours at 37° C. under 95% […] and 5% CO2.
3) Receptor-binding Experiment
When the hNK1-CHO cells became subconfluent on the 24-well plate, an F-12 culture broth (containing 10 mM HEPES and 0.1% fetal bovine serum) (450 μL), [^3H]-Substance P (Amersham, final concentration 0.5 nM), and a test compound were added to the cells, and the mixture was incubated for 40 minutes at 37° C. For the measurement of non-specific binding, L703606 (Sigma) was added instead of the test compound. After completion of incubation, the mixture was washed with ice-cooled phosphate buffered saline containing 0.1% fetal bovine serum, and the cells were lysed with 1N NaOH (0.5 mL). The lysate was transfered to a plastic vial containing UltimaGold MV (5 mL), and the radioactivity was determined by means of a liquid liquid scintillation counter (Packard, 2000CA).
Percent radioactive ligand-receptor binding inhibition of each test compound was calculated by use of the following equation, and IC50 (nM) was determined through pseudo-Hill analysis.
Percent inhibition (%)=[1−(C−A)/(B−A)]×100
A: Radioactivity attributed to non-specific binding
B: Radioactivity without test compound
C: Radioactivity with test compound

[1] = biological target: T1, Cloned Neurokinin Receptor Subtype 2 Human (Homo sapiens, UniProt P21452); assay: NK-2 receptor-binding experiment ([3H]-SR48968, CHO cell membranes); details: Table 4; inhibition of [3H]-SR48968 (0.85 nM) binding, pseudo-Hill analysis
T1 construct: purchased Biosignal Packard; host or cells: CHO cells
T1 sequence (P21452 1-398): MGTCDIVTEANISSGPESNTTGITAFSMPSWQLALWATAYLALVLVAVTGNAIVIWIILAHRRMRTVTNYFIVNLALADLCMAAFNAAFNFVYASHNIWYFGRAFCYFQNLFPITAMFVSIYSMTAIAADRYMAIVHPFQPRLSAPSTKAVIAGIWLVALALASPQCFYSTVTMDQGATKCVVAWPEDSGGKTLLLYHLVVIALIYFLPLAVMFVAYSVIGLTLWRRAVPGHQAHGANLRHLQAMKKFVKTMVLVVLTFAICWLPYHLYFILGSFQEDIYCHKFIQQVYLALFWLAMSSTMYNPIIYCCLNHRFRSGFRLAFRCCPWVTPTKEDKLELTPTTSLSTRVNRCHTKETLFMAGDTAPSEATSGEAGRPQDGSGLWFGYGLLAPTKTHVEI
Outline: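 Membranes from CHO cells expressing cloned human NK-2 receptor incubated with [3H]-SR48968 (final 0.85 nM) and test compound in 20 mM HEPES, 50 min at 27° C. Bound radioactivity collected by filtration and counted by scintillation; IC50 from pseudo-Hill analysis of percent binding inhibition, nonspecific binding subtracted.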

[2] = Table 4, inhibition of [3H]-Substance P (0.5 nM) binding to hNK1-CHO cells, pseudo-Hill analysis, read-out: NK-1
[3] = Table 2, inhibition of [3H]-Substance P (0.5 nM) binding to hNK1-CHO cells, pseudo-Hill analysis, read-out: NK-1

| Compound | IC50 (NK-1 receptor) | other results |
| --- | --- | --- |
| CN(CC(CCN1CCC2(CC1)c1ccccc1C[S+]2[O-])(c1ccc(Cl)c(Cl)c1)N(C)C(=O)CC(c1ccccc1)c1ccccc1)C(=O)CC(F)(F)F [Compound No. 1, N-{2-(3,4-dichlorophenyl)-2-[(3,3-diphenylpropionyl)-methylamino]-4-{spiro[benzo(c)thiophene-1(3H),4′-piperidine]-(2S)-oxide}-1′-yl-butyl}-3,3,3-trifluoro-N-methyl-propionamide hydrochloride] |  | IC50 (NK-1 receptor; [2]): 1.2 nM; IC50 [1]: 1.6 nM |
| CN(C[C@](CCN1CCC2(CC1)NC(=O)Cc1ccccc12)(c1ccc(Cl)c(Cl)c1)N(C)C(=O)C(c1ccccc1)c1ccccc1)C(=O)CC(F)(F)F [Compound No. 43, N-{2-(S)-(N-methyl-2,2-diphenylacetamide)-2-(3,4-dichlorophenyl)-4-[3-oxo-3,4-dihydro-2H-spiro(isoquinoline-1,4′-piperidin)-1′-yl]butyl}-3,3,3-trifluoro-N-methylpropanamido hydrochloride] |  | IC50 (NK-1 receptor; [2]): 7.7 nM; IC50 [1]: 2.1 nM |
| CC(C)C(=O)N(C)C[C@](CCN1CCC2(CC1)NC(=O)Cc1ccccc12)(c1ccc(Cl)c(Cl)c1)N(C)C(=O)NC(c1ccccc1)c1ccccc1 [Compound No. 44, 1-{1-(N-methyl-isobutylamide)-2-(S)-(3,4-dichlorophenyl)-4-[3-oxo-3,4-dihydro-2H-spiro(isoquinoline-1,4′-piperidin)-1′-yl]butan-2-yl}-3-benzhydryl-1-methylureahydrochloride] |  | IC50 (NK-1 receptor; [2]): 11 nM; IC50 [1]: 2.4 nM |
| COc1cccc(OC(=O)N(C)[C@](CCCN2CCC3(CC2)c2ccccc2C[S@+]3[O-])(CN(C)C(=O)CC(F)(F)F)c2ccc(Cl)c(Cl)c2)c1 [Compound No. 637, 3-methoxyphenyl{1-(3,3,3-trifluoro-N-methylpropanamido)-2-(S)-(3,4-dichlorophenyl)-5-[spiro(benzo(c)thiophene-(2S)-oxido-1(3H), 41-piperidin)-1′-yl]pentan-2-yl}methylcarbamate hydrochloride] | 1.7 nM |  |
| CN(C[C@](CCCN1CCC2(CC1)c1ccccc1C[S@+]2[O-])(c1ccc(Cl)c(Cl)c1)N(C)C(=O)Oc1ccccc1)C(=O)C(F)(F)F [Compound No. 642, phenyl{1-(2,2,2-trifluoro-N-methylacetamide)-2-(S)-(3,4-dichlorophenyl)-5-[spiro(benzo(c)thiophene-(2S)-oxido-1(3H),4′-piperidin)-1′-yl]pentan-2-yl}methylcarbamate hydrochloride] | 3.7 nM |  |
| COc1cc(COC[C@](CCCN2CCC3(CC2)c2ccccc2C[S@+]3[O-])(c2ccc(Cl)c(Cl)c2)N(C)C(=O)NC2CCCCC2)cc(OC)c1OC [Compound No. 599, 1-{1-(3,4,5-trimethoxybenzyloxy)-2-(S)-(3,4-dichlorophenyl)-5-[spiro(benzo(c)thiophene-(2S)-oxido-1(3H),4′-piperidin)-1′-yl]pentan-2-yl}-3-cyclohexyl-1-methylurea hydrochloride] |  | IC50 (NK-1 receptor; [3]): 0.73 nM |
| COc1cc(C(=O)N(C)C[C@](CCCN2CCC3(CC2)c2ccccc2C[S@+]3[O-])(c2ccc(Cl)c(Cl)c2)N(C)C(=O)Oc2ccccc2)cc(OC)c1OC [Compound No. 589, phenyl{1-(3,4,5-trimethoxy-N-methylbenzamide)-2-(S)-(3,4-dichlorophenyl)-5-[spiro(benzo(c)thiophene-(2S)-oxido-1(3H),4′-piperidin)-1′-yl]pentan-2-yl}methylcarbamate hydrochloride] | 0.53 nM |  |
| COc1ccc(OC(=O)N(C)[C@](CCCN2CCC3(CC2)c2ccccc2C[S@+]3[O-])(CN(C)C(=O)CC(F)(F)F)c2ccc(Cl)c(Cl)c2)cc1 [Compound No. 640, 4-methoxyphenyl{1-(3,3,3-trifluoro-N-methylpropanamido)-2-(s)-(3,4-dichlorophenyl)-5-[spiro(benzo(c)thiophene-(2S)-oxido-1(3H),4′-piperidin)-1′-yl]pentan-2-yl}methylcarbamate hydrochloride] | 6 nM |  |
| CN(C[C@](CCCN1CCC2(CC1)c1ccccc1C[S@+]2[O-])(c1ccc(Cl)c(Cl)c1)N(C)C(=O)Oc1cccc(Cl)c1Cl)C(=O)CC(F)(F)F [Compound No. 653, 2,3-dichlorophenyl{1-(3,3,3-trifluoro-N-methylpropanamido)-2-(S)-(3,4-dichlorophenyl)-5-[spiro(benzo(c)thiophene-(2S)-oxido-1(3H),4′-piperidin)-1′-yl]pentan-2-yl}methylcarbamate hydrochloride] | 1.6 nM |  |
| COc1cc(COC[C@](CCCN2CCC3(CC2)c2ccccc2C[S@+]3[O-])(c2ccc(Cl)c(Cl)c2)N(C)C(=O)NCc2ccc(F)cc2)cc(OC)c1OC [Compound No. 621, 1-{1-(3,4,5-trimethoxybenzyloxy)-2-(S)-(3,4-dichlorophenyl)-5-[spiro(benzo(c)thiophene(2S)-oxido-1(3H),4′-piperidin)-1′-yl]pentan-2-yl}-3-(4-fluorobenzyl)-1-methylurea hydrochloride] |  | IC50 (NK-1 receptor; [3]): 0.94 nM |
| CN(C[C@](CCCN1CCC2(CC1)c1ccccc1C[S@+]2[O-])(c1ccc(Cl)c(Cl)c1)N(C)C(=O)Oc1ccccc1F)C(=O)CC(F)(F)F [Compound No. 638, 2-fluorophenyl{1-(3,3,3-trifluoro-N-methylpropanamido)-2-(S)-(3,4-dichlorophenyl)-5-[spiro(benzo(c)thiophene-(2S)-oxido-1(3H),4′-piperidin)-1′-yl]pentan-2-yl}methylcarbamate hydrochloride] | 6 nM |  |
| CN(C[C@](CCCN1CCC2(CC1)c1ccccc1C[S@+]2[O-])(c1ccc(Cl)c(Cl)c1)N(C)C(=O)Oc1ccc(F)c(F)c1)C(=O)CC(F)(F)F [compound 655, 3,4-difluorophenyl{1-(3,3,3-trifluoro-N-methylpropanamido)-2-(S)-(3,4-dichlorophenyl)-5-[spiro(benzo(c)thiophene-(2S)-oxido-1(3H),4′-piperidin)-1′-yl]pentan-2-yl}methylcarbamate hydrochloride] | 1.3 nM |  |
| CN(C[C@](CCCN1CCC2(CC1)c1ccccc1C[S@+]2[O-])(c1ccc(Cl)c(Cl)c1)N(C)C(=O)Oc1cccc(F)c1)C(=O)CC(F)(F)F [Compound No. 634, 3-fluorophenyl{1-(3,3,3-trifluoro-N-methylpropanamido)-2-(S)-(3,4-dichlorophenyl)-5-[spiro(benzo(c)thiophene-(2S)-oxido-1(3H),4′-piperidin)-1′-yl]pentan-2-yl}methylcarbamate hydrochloride] | 2 nM |  |
| COc1cc(COCC(CCCN2CCC(C(N)=O)(c3ccccc3)CC2)(c2ccc(Cl)c(Cl)c2)N(C)C(=O)Oc2ccccc2)cc(OC)c1OC (racemic) [Compound No. 17, [4-(4-Carbamoyl-4-phenyl-piperidine-1-yl)-1-(3,4-dichloro-phenyl)-1-(3,4,5-trimethoxy-benzyloxymethyl)-butyl]-methyl-carbamic acid phenyl ester hydrochloride] | 1.5 nM |  |
| Cc1ccc(OC(=O)N(C)[C@](CCCN2CCC3(CC2)c2ccccc2C[S@+]3[O-])(CN(C)C(=O)CC(F)(F)F)c2ccc(Cl)c(Cl)c2)cc1 [Compound No. 652, 4-tolyl{1-(3,3,3-trifluoro-N-methylpropanamido)-2-(S)-(3,4-dichlorophenyl)-5-[spiro(benzo(c)thiophene-(2S)-oxido-1(3H),4′-piperidin)-1′-yl]pentan-2-yl}methylcarbamate hydrochloride] | 2.7 nM |  |
